Source: the CheMixHub drug solubility set

Assay: xn = mol fraction of the nth substance listed, in the solute-free solvent

CC(CCc1ccccc1)NCC(O)c1ccc(O)c(C(N)=O)c1.Cl (centres undefined) + CO + CC#N
solubility (g/100 g solution)
Conditions	288.15 K	293.15 K	298.15 K	303.15 K	308.15 K	313.15 K	318.15 K	323.15 K	328.15 K
x2 = 0.2426	0.0461	0.0674	0.0984	0.137	0.19	0.268	0.388	0.533	0.751
x2 = 0.3544	0.126	0.167	0.222	0.282	0.389	0.49	0.639	0.847	1.1
x2 = 0.4606	0.172	0.234	0.323	0.436	0.58	0.766	1.03	1.38	1.81
x2 = 0.5616	0.411	0.533	0.674	0.884	1.1	1.4	1.74	2.17	2.71
x2 = 0.6577	0.787	0.998	1.23	1.54	1.92	2.35	2.89	3.46	4.2
x2 = 0.7493	1.73	2.02	2.44	2.83	3.37	3.94	4.42	5.29	6.03
x2 = 0.8367	2.23	2.77	3.37	4.11	5.04	6.01	7.18	8.54	10.1
x2 = 0.9202	4.34	5.22	6.18	7.32	8.68	10.1	11.7	13.5	15.6

c1ccc2[nH]c(-c3cscn3)nc2c1 + CCCO + O
solubility (g/100 g solution)
Conditions	283.15 K	288.15 K	293.15 K	298.15 K	303.15 K	308.15 K	313.15 K	318.15 K	323.15 K
x2 = 0.03225	0.00325	0.00407	0.00514	0.00634	0.00789	0.00974	0.0118	0.0143	0.0173
x2 = 0.06974	0.0139	0.017	0.021	0.0263	0.0319	0.0383	0.0458	0.0545	0.0646
x2 = 0.1139	0.0334	0.0402	0.0487	0.0585	0.0703	0.0828	0.0976	0.116	0.136
x2 = 0.1666	0.0767	0.09	0.106	0.122	0.142	0.162	0.188	0.212	0.242
x2 = 0.2307	0.141	0.163	0.188	0.216	0.249	0.284	0.321	0.365	0.413
x2 = 0.3103	0.21	0.243	0.282	0.322	0.367	0.415	0.47	0.525	0.592
x2 = 0.4117	0.291	0.331	0.38	0.435	0.497	0.563	0.633	0.707	0.794
x2 = 0.5454	0.37	0.423	0.483	0.545	0.62	0.699	0.785	0.879	0.983
x2 = 0.7297	0.425	0.482	0.553	0.623	0.708	0.79	0.883	0.986	1.1

CC(=O)N1CCN(c2ccc(OCC3COC(Cn4ccnc4)(c4ccc(Cl)cc4Cl)O3)cc2)CC1 (centres undefined) + CC#N + O
solubility (g/100 g solution)
Conditions	x2 = 0.04651	x2 = 0.0989	x2 = 0.1583	x2 = 0.2264	x2 = 0.3051	x2 = 0.397	x2 = 0.506	x2 = 0.6372	x2 = 0.798
293.15 K	0.0181	0.108	0.587	2.22	5.12	9.21	11.9	10	4.67
298.15 K	0.0214	0.122	0.681	2.63	6.07	10.5	13	11.2	5.65
303.15 K	0.024	0.137	0.794	2.95	6.89	11.7	14.2	12.5	6.84
308.15 K	0.0263	0.157	0.888	3.36	7.88	12.9	15.4	13.6	7.71
313.15 K	0.0283	0.177	0.992	3.72	8.81	13.8	16.5	14.9	8.58

CCC(C)n1ncn(-c2ccc(N3CCN(c4ccc(OCC5COC(Cn6cncn6)(c6ccc(Cl)cc6Cl)O5)cc4)CC3)cc2)c1=O (centres undefined) + ClC(Cl)Cl + CCCCO
solubility (g/100 g solution)
Conditions	x2 = 0.06524	x2 = 0.1357	x2 = 0.2121	x2 = 0.2952	x2 = 0.3858	x2 = 0.4851	x2 = 0.5945	x2 = 0.7153	x2 = 0.8497
288.15 K	0.0548	0.12	0.336	0.987	3.22	7.01	12	17.9	23.9
293.15 K	0.0651	0.142	0.387	1.18	3.56	7.85	13.2	18.9	24.8
298.15 K	0.0777	0.171	0.445	1.39	3.92	8.74	14.3	20.1	25.6
303.15 K	0.0924	0.202	0.509	1.65	4.3	9.68	15.4	21.3	26.5
308.15 K	0.109	0.237	0.583	1.93	4.71	10.7	16.6	22.4	27.4

CCC(C)n1ncn(-c2ccc(N3CCN(c4ccc(OCC5COC(Cn6cncn6)(c6ccc(Cl)cc6Cl)O5)cc4)CC3)cc2)c1=O (centres undefined) + ClCCl + CO
solubility (g/100 g solution)
Conditions	x2 = 0.04066	x2 = 0.08707	x2 = 0.1405	x2 = 0.2028	x2 = 0.2761	x2 = 0.364	x2 = 0.4709	x2 = 0.6041	x2 = 0.7744
288.15 K	0.122	0.244	0.561	1.46	4.71	10.6	19.3	28	31.4
293.15 K	0.147	0.294	0.696	1.84	5.79	12.5	21.2	29.4	32.6
298.15 K	0.177	0.355	0.855	2.28	6.97	14.5	23.2	30.8	33.9
303.15 K	0.212	0.426	1.04	2.83	8.37	16.8	25.3	32.2	35
308.15 K	0.253	0.508	1.26	3.5	9.95	19.3	27.6	33.6	36.2

CC(N)C(=O)O (centres undefined) + O + CC(C)O
solubility (g/100 g solution)
Conditions	x2 = 0.1	x2 = 0.2	x2 = 0.3	x2 = 0.4	x2 = 0.5	x2 = 0.6	x2 = 0.7	x2 = 0.8	x2 = 0.9
283.15 K	0.0186	0.0381	0.0478	0.104	0.185	0.376	0.772	1.58	3.5
293.15 K	0.0303	0.046	0.0604	0.124	0.223	0.459	1.01	2.08	4.48
303.15 K	0.0379	0.0557	0.0726	0.143	0.267	0.552	1.25	2.62	5.51
313.15 K	0.0427	0.0643	0.0784	0.158	0.316	0.704	1.55	3.3	6.91
323.15 K	0.0448	0.0801	0.113	0.167	0.372	0.842	1.85	4.04	8.23

CC(C)=CCCC(C)C1CCC2(C)C3=C(CCC12C)C1(C)CCC(O)C(C)(C)C1CC3 (centres undefined) + CCO + O
solubility (g/100 g solution)
Conditions	278.15 K	288.15 K	298.15 K	308.15 K	318.15 K
x2 = 0.01604	3.88e-05	6.47e-05	0.000106	0.000176	0.000263
x2 = 0.1154	0.000122	0.000181	0.000283	0.000357	0.000444
x2 = 0.3147	0.000276	0.000461	0.000699	0.00134	0.00191
x2 = 0.7415	0.245	0.366	0.512	0.754	0.839

OCCN(CCO)c1nc(N2CCCCC2)c2nc(N(CCO)CCO)nc(N3CCCCC3)c2n1 + CC(C)O + O
solubility (g/100 g solution)
Conditions	293.15 K	298.15 K	303.15 K	308.15 K	313.15 K	318.15 K	323.15 K	328.15 K
x2 = 0.3	4.66	6.62	8.49	11.6	14.9	19.9	27.3	32.8
x2 = 0.4	7.42	9.61	12.4	15.3	20.2	25.6	32.3	39.9
x2 = 0.5	8.69	11.8	14.9	18.1	21.7	27.7	33.4	39.5
x2 = 0.6	9.25	11.6	14.6	18	20.8	26.6	31.7	37.5
x2 = 0.7	8.37	9.97	12.7	15.8	19.1	23.7	28.6	33.6
x2 = 0.8	6.58	8.26	10.4	13.2	15.7	20	24	29
x2 = 0.9	4.8	6.08	7.64	9.93	11.6	15.1	18.8	23.2
